Assay results published in US20230167114A1, “MACROCYCLIC JAK INHIBITOR AND USE THEREOF” (Biopolar Hongye (Guangdong) Pharmaceutical Co., Ltd., priority 2020, published 2023).

What was measured:
Type in all cases: biochemical
[1] = target: JAK1 (Homo sapiens, UniProt P23458); test: JAK kinase activity, homogeneous time-resolved fluorescence (JAK1 reaction system); conditions: ATP 2 μM, JAK1 protein 0.2 ng/μL; read-out: JAK 1 activity
Description: (§1) The activity measurement method of JAK kinase was to use homogeneous time-resolved fluorescence technique. The reaction was performed in 384 shallow well plates with a total reaction volume of 10 μL. The mixture of kinase protein, compound, ATP and substrate was carried out in a reaction buffer of 50 mM Hepes (pH7.0), NaN3 0.02%, BSA 0.01%, 0.1 mM orthocanadate, 5 mM MgCl2, and 1 mM DTT. After reacting for 1 hour, antibody capable of recognizing substrate phosphorylation and dye XL-615 and detection buffer (Cisbio) containing EDTA were added to the system. The reaction signal of kinase was detected by PE company's porous plate detector. The parameter settings were excitation light at 320 nm, emission light at 615 nm and 665 nm. The activity of JAK is indirectly reflected by the signal ratio of 665 nm and 615 nm. In the reaction, the background well without enzyme and the total enzyme activity well without compound were set.
(§2) The IC50 value of the compound inhibiting protein was obtained by the formula: Y=100/(1+10^((Log IC50−X)*HillSlope)).
In JAK1 reaction system, the concentration of ATP was 2 μM, and the concentration of JAK1 protein was 0.2 ng/μL.

[2] = target: JAK2 (Homo sapiens, UniProt O60674); test: JAK kinase activity, homogeneous time-resolved fluorescence (JAK2 reaction system); conditions: ATP 2 μM, JAK2 protein 0.01 ng/μL
Chain of JAK2 (O60674 whole entry): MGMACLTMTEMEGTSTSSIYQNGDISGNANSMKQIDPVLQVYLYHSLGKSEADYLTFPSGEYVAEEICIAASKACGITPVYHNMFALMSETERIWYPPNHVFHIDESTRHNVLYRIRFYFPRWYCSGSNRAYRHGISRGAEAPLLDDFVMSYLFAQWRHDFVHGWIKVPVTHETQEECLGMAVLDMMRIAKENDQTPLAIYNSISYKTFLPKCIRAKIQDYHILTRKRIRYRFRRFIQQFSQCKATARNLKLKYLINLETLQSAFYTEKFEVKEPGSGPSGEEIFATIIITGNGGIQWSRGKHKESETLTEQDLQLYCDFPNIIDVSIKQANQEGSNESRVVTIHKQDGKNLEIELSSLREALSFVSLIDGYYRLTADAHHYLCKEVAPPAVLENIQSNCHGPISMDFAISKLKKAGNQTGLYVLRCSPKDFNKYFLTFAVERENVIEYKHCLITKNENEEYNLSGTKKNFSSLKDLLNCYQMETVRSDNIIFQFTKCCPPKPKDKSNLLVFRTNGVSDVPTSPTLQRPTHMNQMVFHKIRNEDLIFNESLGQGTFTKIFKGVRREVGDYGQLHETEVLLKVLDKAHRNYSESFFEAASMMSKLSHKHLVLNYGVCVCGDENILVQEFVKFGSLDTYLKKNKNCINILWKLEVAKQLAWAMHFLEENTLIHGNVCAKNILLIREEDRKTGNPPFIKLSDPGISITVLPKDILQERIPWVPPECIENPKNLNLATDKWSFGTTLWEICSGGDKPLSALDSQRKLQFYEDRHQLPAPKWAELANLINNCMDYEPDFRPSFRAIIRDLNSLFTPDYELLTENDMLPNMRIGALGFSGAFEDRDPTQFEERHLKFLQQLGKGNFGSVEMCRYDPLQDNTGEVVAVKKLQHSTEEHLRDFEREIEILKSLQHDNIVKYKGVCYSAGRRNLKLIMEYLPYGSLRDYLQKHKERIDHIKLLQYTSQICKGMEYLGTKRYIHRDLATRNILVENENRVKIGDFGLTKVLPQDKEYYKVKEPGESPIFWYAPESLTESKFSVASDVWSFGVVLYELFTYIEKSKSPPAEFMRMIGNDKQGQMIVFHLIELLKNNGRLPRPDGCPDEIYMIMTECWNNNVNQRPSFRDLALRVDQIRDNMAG
Description: as §1, §2
In JAK2 reaction system, the concentration of ATP was 2 μM, and the concentration of JAK2 protein was 0.01 ng/μL.

[3] = target: T1, JAK3 (Homo sapiens, UniProt P52333); test: JAK kinase activity, homogeneous time-resolved fluorescence (JAK3 reaction system); conditions: ATP 2 μM, JAK3 protein 0.04 ng/μL; read-out: JAK 3 activity
T1 sequence (P52333 1-1124): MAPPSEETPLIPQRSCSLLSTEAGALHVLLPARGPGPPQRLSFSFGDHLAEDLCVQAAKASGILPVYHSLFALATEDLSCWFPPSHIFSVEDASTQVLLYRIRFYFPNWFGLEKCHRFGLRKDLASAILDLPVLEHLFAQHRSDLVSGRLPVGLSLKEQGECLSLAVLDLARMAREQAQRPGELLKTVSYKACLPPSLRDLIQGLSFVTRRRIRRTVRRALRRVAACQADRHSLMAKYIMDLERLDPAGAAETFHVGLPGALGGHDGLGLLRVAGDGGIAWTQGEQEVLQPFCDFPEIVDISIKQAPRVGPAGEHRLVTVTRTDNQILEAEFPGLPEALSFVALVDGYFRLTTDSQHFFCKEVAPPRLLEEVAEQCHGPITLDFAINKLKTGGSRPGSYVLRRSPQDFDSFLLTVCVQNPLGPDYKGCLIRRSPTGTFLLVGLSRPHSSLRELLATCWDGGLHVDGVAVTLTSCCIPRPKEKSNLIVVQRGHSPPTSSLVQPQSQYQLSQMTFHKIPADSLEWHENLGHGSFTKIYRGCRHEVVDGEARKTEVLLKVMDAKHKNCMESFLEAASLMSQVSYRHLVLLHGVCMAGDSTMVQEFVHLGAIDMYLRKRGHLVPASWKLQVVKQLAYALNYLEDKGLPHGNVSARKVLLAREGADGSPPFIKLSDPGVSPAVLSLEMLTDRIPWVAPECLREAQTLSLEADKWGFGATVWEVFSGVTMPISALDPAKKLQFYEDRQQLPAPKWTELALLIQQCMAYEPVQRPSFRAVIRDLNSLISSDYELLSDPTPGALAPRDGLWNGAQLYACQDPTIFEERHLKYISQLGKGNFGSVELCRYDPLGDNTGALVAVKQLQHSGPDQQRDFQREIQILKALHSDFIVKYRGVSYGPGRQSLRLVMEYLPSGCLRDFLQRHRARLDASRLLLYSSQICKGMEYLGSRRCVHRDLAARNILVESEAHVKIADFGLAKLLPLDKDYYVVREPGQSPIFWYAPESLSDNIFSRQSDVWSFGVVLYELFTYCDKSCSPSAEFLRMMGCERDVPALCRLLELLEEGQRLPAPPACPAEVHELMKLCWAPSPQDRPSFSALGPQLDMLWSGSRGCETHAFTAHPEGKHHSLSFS
Description: as §1, §2
In JAK3 reaction system, the concentration of ATP was 2 μM, and the concentration of JAK3 protein was 0.04 ng/μL.

[4] = target: TYK2 (Homo sapiens, UniProt P29597); test: JAK kinase activity, homogeneous time-resolved fluorescence (TYK2 reaction system); conditions: ATP 2 μM, TYK2 protein 0.2 ng/μL; read-out: TYK 2 activity
Chain of TYK2 (P29597 whole entry): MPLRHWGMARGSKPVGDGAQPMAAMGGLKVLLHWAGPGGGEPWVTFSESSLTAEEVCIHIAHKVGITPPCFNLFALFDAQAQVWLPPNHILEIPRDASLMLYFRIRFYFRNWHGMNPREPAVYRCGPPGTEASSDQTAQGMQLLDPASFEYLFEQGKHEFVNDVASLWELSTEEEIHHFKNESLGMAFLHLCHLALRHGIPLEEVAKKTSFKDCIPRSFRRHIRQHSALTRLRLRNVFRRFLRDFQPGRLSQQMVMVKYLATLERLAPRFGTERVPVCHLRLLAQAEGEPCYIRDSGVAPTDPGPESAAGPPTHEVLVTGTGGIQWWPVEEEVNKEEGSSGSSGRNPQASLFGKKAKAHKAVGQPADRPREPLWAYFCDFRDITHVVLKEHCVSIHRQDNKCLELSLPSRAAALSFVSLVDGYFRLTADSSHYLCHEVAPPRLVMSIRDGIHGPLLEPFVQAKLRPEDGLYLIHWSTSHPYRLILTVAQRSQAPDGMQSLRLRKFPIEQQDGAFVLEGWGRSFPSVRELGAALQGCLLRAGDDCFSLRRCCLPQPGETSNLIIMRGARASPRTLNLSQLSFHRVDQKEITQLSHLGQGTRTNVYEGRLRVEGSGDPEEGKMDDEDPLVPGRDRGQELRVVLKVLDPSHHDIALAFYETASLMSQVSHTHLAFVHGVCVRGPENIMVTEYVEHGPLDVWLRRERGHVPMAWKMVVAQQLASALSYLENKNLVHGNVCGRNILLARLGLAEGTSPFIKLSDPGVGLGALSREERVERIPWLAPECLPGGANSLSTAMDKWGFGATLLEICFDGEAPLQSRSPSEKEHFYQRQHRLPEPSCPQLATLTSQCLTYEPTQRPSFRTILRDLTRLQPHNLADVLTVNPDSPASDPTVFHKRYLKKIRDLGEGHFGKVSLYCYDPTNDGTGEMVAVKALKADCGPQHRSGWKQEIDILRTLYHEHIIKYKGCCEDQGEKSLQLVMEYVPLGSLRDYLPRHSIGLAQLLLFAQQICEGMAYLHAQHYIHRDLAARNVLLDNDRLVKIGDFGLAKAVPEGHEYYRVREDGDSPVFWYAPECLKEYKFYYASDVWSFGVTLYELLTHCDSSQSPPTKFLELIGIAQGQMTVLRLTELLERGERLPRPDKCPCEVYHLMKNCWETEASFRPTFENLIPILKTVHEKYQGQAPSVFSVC
Description: as §1, §2
In TYK2 reaction system, the concentration of ATP was 2 μM and the concentration of TYK2 protein was 0.2 ng/μL.

Chain of JAK1 (P23458 whole entry): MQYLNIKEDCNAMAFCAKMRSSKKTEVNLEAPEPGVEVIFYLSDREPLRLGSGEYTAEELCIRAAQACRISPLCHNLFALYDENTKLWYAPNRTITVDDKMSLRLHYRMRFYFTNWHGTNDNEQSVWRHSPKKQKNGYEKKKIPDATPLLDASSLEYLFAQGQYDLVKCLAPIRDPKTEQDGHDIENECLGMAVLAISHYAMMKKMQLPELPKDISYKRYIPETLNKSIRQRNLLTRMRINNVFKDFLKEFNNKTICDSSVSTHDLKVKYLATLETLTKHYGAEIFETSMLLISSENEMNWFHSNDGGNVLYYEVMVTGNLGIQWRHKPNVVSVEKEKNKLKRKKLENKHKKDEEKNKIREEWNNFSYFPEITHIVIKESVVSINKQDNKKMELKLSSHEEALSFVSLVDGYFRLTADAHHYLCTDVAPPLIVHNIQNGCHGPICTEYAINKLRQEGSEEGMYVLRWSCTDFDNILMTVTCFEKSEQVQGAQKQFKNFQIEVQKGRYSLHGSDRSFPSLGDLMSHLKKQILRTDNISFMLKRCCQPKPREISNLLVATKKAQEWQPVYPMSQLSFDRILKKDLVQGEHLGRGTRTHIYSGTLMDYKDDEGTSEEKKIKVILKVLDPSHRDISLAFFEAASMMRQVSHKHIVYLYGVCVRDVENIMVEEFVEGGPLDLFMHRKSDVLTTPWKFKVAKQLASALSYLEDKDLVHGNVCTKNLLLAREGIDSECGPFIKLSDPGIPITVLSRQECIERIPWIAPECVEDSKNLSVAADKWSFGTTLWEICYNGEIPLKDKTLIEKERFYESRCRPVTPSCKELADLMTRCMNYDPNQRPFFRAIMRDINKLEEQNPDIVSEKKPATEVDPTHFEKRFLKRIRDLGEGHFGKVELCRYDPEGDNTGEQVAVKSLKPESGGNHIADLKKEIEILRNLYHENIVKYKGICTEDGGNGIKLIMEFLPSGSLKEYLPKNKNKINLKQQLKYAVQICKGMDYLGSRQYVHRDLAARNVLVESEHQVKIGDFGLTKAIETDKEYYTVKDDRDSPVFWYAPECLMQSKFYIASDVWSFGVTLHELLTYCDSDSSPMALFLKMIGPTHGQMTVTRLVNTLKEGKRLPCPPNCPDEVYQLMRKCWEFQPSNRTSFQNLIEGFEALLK

SMILES	IC50 [1]	IC50 [2]	IC50 [3]	IC50 [4]
Cc1cnc2nc1NCCCCCNC(=O)c1ccc(cc1S(C)(=O)=O)-c1cnc(F)c(c1)N2 [Compound 20, 2^6-fluoro-4^5-methyl-1^3-methylsulfonyl-3,5,11-triaza-4(2,4)-pyrimidina-2(3,5)-pyridina-1(1,4)-benzenacyclododecaphan-12-one]	11 to 100 nM	1000 to 10000 nM	1000 to 10000 nM	> 10000 nM
Cc1cnc2nc1NCCCCCNC(=O)c1ccc(cc1C(=O)O)-c1cnc(F)c(c1)N2 [Compound 21]	101 to 1000 nM	11 to 100 nM	101 to 1000 nM	1000 to 10000 nM
Cc1cnc2nc1Nc1cccc(c1)CCNC(=O)c1ccc(cc1)-c1cnc(F)c(c1)N2 [Compound 22, 2^6-fluoro-4^5-methyl-3,5,9-triaza-4(2,4)-pyrimidina-2(3,5)-pyridina-1(1,4),6(1,3)-dibenzenacyclodecaphan-10-one]	< 10 nM	< 10 nM	< 10 nM	11 to 100 nM
Cc1cnc2nc1Nc1cccc(c1)CCCNC(=O)c1ccc(cc1F)-c1cnc(F)c(c1)N2 [Compound 23, 1^3,2^6-difluoro-4^5-methyl-3,5,10-triaza-4(2,4)-pyrimidina-2(3,5)-pyridina-1(1,4),6(1,3)-dibenzenacycloundecaphan-11-one]	< 10 nM	< 10 nM	101 to 1000 nM	101 to 1000 nM
Cc1cnc2nc1Nc1cccc(c1)CCNC(=O)c1ccc(cc1S(C)(=O)=O)-c1cnc(F)c(c1)N2 [Compound 24, 2^6-fluoro-4^5-methyl-1^3-(methylsulfonyl)-3,5,9-triaza-4(2,4)-pyrimidina-2(3,5)-pyridina-1(1,4),6(1,3)-dibenzenacyclodecaphan-10-one]	< 10 nM	< 10 nM	11 to 100 nM	101 to 1000 nM
Cc1cnc2nc1Nc1cccc(c1)CCCNC(=O)c1ccc(cc1S(C)(=O)=O)-c1cnc(F)c(c1)N2 [Compound 25, 2^6-fluoro-4^5-methyl-1^3-(methylsulfonyl)-3,5,10-triaza-4(2,4)-pyrimidina-2(3,5)-pyridina-1(1,4),6(1,3)-dibenzenacycloundecaphan-11-one]	< 10 nM	< 10 nM	11 to 100 nM	101 to 1000 nM
Cc1cnc2nc1NCCCCCNC(=O)c1ccc(c(S(C)(=O)=O)c1)-c1cnc(F)c(c1)N2 [Compound 26, 2^6-fluoro-4^5-methyl-1^2-(methylsulfonyl)-3,5,11-triaza-4(2,4)-pyrimidina-2(3,5)-pyridina-1(1,4)-benzenacyclododecaphan-12-one]	1000 to 10000 nM	1000 to 10000 nM	1000 to 10000 nM	> 10000 nM
Cc1cnc2nc1Nc1ccc(F)c(c1)CCNC(=O)c1ccc(cc1S(C)(=O)=O)-c1cnc(F)c(c1)N2 [Compound 27, 2^6,6^4-difluoro-4^5-methyl-1^3(methylsulfonyl)-3,5,9-triaza-4(2,4)-pyrimidina-2(3,5)-pyridina-1(1,4),6(1,3)-dibenzenacyclodecaphan-10-one]	11 to 100 nM	101 to 1000 nM	101 to 1000 nM	> 10000 nM
Cc1cnc2nc1Nc1cccc(c1)CCNC(=O)c1ccc(cc1F)-c1cnc(F)c(c1)N2 [Compound 28, 1^3,2^6-difluoro-4^5-methyl-3,5,9-triaza-4(2,4)-pyrimidina-2(3,5)-pyridina-1(1,4),6(1,3)-dibenzenacyclodecaphan-10-one]	< 10 nM	11 to 100 nM	11 to 100 nM	1000 to 10000 nM
Cc1cnc2nc1Nc1cc(ccc1F)CCNC(=O)c1ccc(cc1S(C)(=O)=O)-c1cnc(F)c(c1)N2 [Compound 29, 2^6,6^6-difluoro-4^5-methyl-1^3(methylsulfonyl)-3,5,9-triaza-4(2,4)-pyrimidina-2(3,5)-pyridina-1(1,4),6(1,3)-dibenzenacyclodecaphan-10-one]	11 to 100 nM	101 to 1000 nM	1000 to 10000 nM	> 10000 nM
Cc1cnc2nc1Nc1ccccc1CCNC(=O)c1ccc(cc1F)-c1cnc(F)c(c1)N2 [Compound 30, 1^3,6^6-difluoro-4^5-methyl-1^3-3,5,9-triaza-4(2,4)-pyrimidina-1(5,2),2(3,5)-dipyridina-6(1,2)-benzenacyclodecaphan-10-one]	11 to 100 nM	11 to 100 nM	101 to 1000 nM	1000 to 10000 nM
Cc1cnc2nc1Nc1cccc(c1)CCCNC(=O)c1c(F)cc(cc1F)-c1cnc(F)c(c1)N2 [Compound 31, 1^3,1^5,2^6-trifluoro-4^5-methyl-3,5,10-triaza-4(2,4)-pyrimidina-2(3,5)-pyridina-1(1,4),6(1,3)-dibenzenacycloundecaphan-11-one]	101 to 1000 nM	101 to 1000 nM	1000 to 10000 nM	> 10000 nM
Cc1cnc2nc1Nc1ccccc1CCCNC(=O)c1ccc(cc1F)-c1cnc(F)c(c1)N2 [Compound 32, 1^3,2^6-difluoro-4^5-methyl-3,5,10-triaza-4(2,4)-pyridina-1(5,2),2(3,5)-dipyridina-6(1,2)-benzenacycloundecaphan-11-one]	11 to 100 nM	11 to 100 nM	101 to 1000 nM	1000 to 10000 nM
Cc1cnc2nc1Nc1cccc(c1)CCNC(=O)c1c(F)cc(cc1F)-c1cnc(F)c(c1)N2 [Compound 33, 1^3,1^5,2^6-trifluoro-4^5-methyl-3,5,9-triaza-4(2,4)-pyrimidina-2(3,5)-pyridina-1(1,4),6(1,3)-dibenzenacyclodecaphan-10-one]	101 to 1000 nM	101 to 1000 nM	1000 to 10000 nM	> 10000 nM
Cc1cnc2nc1NCCCCCNC(=O)c1ccc(c(F)c1F)-c1cnc(F)c(c1)N2 [Compound 34, 1^2,l^3,2^6-trifluoro-4^5-methyl-3,5,11-triaza-4(2,4)-pyrimidina-2(3,5)-pyridina-1(1,4)-benzenacydododecaphan-12-one]	101 to 1000 nM	101 to 1000 nM	101 to 1000 nM	> 10000 nM
Cc1cnc2nc1Nc1cccc(c1)CCCC(=O)N1CCN(CC1)c1cnc(F)c(c1)N2 [Compound 35, 2^6-fluoro-4^5-methyl-3,5-diaza-4(2,4)-pyrimidina-1(1,4)-piperazina-2(3,5)-pyridina-6(1,3)-benzenacyclodecaphan-10-one]	< 10 nM	11 to 100 nM	101 to 1000 nM	101 to 1000 nM
COC(=O)c1cc2ccc1C(=O)NCCCc1cccc(c1)Nc1nc(ncc1C)Nc1cc-2cnc1F [Compound 36, Methyl 2^6-fluoro-4^5-methyl-11-oxo-3,5,10-triaza-4(2,4)-pyrimidina-2(3,5)-pyridina-1(1,4),6(1,3)-dibenzenacycloundecaphan-1^3-carboxylate]	< 10 nM	< 10 nM	11 to 100 nM	101 to 1000 nM
Cc1cnc2nc1Nc1cccc(c1)CCCNC(=O)c1ccc(cc1C(=O)O)-c1cnc(F)c(c1)N2 [Compound 37, 2^6-fluoro-4^5-methyl-11-oxo-3,5,10-triaza-4(2,4)-pyrimidina-2(3,5)-pyridina-1(1,4),6(1,3)-dibenzenacycloundecaphan-1^3 - formic acid]	11 to 100 nM	11 to 100 nM	101 to 1000 nM	1000 to 10000 nM
